Test results from the kinase profiling compilation of Christmann-Franck et al. (2016).

Columns and labels:
Experiment in all cases: radiometric filter-binding kinase assay
[1] = test system: AKT1 (human), P31749 [S473D]; settings: compound 20.0 µM
[2] = test system: AKT2 (human), P31751 [S474D]; settings: compound 20.0 µM
AURKB (human) = AURKB (human) (UniProt Q96GD4); settings: compound 20.0 µM
BRSK2 (human) = BRSK2 (human) (UniProt Q8IWQ3); settings: compound 20.0 µM
CAMKK2 (human) = CAMKK2 (human) (UniProt Q96RR4); settings: compound 20.0 µM
CDK2 CCNA2 (human) = CDK2 CCNA2 (human) (UniProt P20248+P24941); settings: compound 20.0 µM
CHEK2 (human) = CHEK2 (human) (UniProt O96017); settings: compound 20.0 µM
CaMK1 (human) = CaMK1 (human) (UniProt Q14012); settings: compound 20.0 µM
DYRK3 (human) = DYRK3 (human) (UniProt O43781); settings: compound 20.0 µM
EPHA2 (human) = EPHA2 (human) (UniProt P29317); settings: compound 20.0 µM
FGFR1 (human) = FGFR1 (human) (UniProt P11362); settings: compound 20.0 µM
GSK3B (human) = GSK3B (human) (UniProt P49841); settings: compound 20.0 µM
IKBKE (human) = IKBKE (human) (UniProt Q14164); settings: compound 20.0 µM
LCK (mouse) = settings: compound 20.0 µM; accession and sequence are those of the human protein
MAPK11 (human) = MAPK11 (human) (UniProt Q15759); settings: compound 20.0 µM
MAPK12 (human) = MAPK12 (human) (UniProt P53778); settings: compound 20.0 µM
MAPK14 (human) = MAPK14 (human) (UniProt Q16539); settings: compound 20.0 µM
MAPK8 (human) = MAPK8 (human) (UniProt P45983); settings: compound 20.0 µM
MAPKAPK5 (human) = MAPKAPK5 (human) (UniProt Q8IW41); settings: compound 20.0 µM
MELK (human) = MELK (human) (UniProt Q14680); settings: compound 20.0 µM
MYLK (human) = MYLK (human) (UniProt Q15746); settings: compound 20.0 µM
NEK2 (human) = NEK2 (human) (UniProt P51955); settings: compound 20.0 µM
NEK6 (human) = NEK6 (human) (UniProt Q9HC98); settings: compound 20.0 µM
PAK6 (human) = PAK6 (human) (UniProt Q9NQU5); settings: compound 20.0 µM
PHKG1 (human) = PHKG1 (human) (UniProt Q16816); settings: compound 20.0 µM
PIM1 (human) = PIM1 (human) (UniProt P11309); settings: compound 20.0 µM
PIM2 (human) = PIM2 (human) (UniProt Q9P1W9); settings: compound 20.0 µM
PIM3 (human) = PIM3 (human) (UniProt Q86V86); settings: compound 20.0 µM
PLK1 (human) = PLK1 (human) (UniProt P53350); settings: compound 20.0 µM
[3] = biological target: PRKAA1 PRKAB2 PRKAG1 (human) (UniProt O43741+Q13131+P54619); settings: compound 20.0 µM
PRKACA (human) = PRKACA (human) (UniProt P17612); settings: compound 20.0 µM
PRKCA (human) = PRKCA (human) (UniProt P17252); settings: compound 20.0 µM
PRKCZ (human) = PRKCZ (human) (UniProt Q05513); settings: compound 20.0 µM
RPS6KA1 KD1 KD2 (human) = RPS6KA1 KD1 KD2 (human) (UniProt Q15418); settings: compound 20.0 µM
RPS6KA3 KD1 KD2 (human) = RPS6KA3 KD1 KD2 (human) (UniProt P51812); settings: compound 20.0 µM
SRC (human) = SRC (human) (UniProt P12931); settings: compound 20.0 µM
STK3 (human) = STK3 (human) (UniProt Q13188); settings: compound 20.0 µM
SYK (human) = SYK (human) (UniProt P43405); settings: compound 20.0 µM
TBK1 (human) = TBK1 (human) (UniProt Q9UHD2); settings: compound 20.0 µM
YES1 (human) = YES1 (human) (UniProt P07947); settings: compound 20.0 µM

Sequence of NEK6 (human) (Q9HC98 whole entry, looked up): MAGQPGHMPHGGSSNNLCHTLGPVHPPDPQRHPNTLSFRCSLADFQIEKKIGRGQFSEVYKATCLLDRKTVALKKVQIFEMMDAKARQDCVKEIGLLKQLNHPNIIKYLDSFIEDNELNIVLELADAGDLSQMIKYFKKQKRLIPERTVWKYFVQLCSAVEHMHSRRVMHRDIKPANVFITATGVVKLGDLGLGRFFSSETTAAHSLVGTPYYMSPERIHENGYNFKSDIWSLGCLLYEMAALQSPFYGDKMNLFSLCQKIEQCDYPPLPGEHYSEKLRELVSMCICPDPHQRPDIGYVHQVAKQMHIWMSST
Sequence of MAPK12 (human) (P53778 whole entry, looked up): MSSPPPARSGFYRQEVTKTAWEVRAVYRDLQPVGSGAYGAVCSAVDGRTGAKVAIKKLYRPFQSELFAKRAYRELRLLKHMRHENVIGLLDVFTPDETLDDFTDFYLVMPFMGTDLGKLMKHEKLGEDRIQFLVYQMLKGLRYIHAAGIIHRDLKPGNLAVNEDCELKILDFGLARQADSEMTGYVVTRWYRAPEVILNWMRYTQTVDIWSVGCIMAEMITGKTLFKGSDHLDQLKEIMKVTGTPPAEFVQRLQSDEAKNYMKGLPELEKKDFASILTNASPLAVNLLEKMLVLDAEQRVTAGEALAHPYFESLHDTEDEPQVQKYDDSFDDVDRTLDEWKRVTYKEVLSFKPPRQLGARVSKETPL
Sequence of CaMK1 (human) (Q14012 whole entry, looked up): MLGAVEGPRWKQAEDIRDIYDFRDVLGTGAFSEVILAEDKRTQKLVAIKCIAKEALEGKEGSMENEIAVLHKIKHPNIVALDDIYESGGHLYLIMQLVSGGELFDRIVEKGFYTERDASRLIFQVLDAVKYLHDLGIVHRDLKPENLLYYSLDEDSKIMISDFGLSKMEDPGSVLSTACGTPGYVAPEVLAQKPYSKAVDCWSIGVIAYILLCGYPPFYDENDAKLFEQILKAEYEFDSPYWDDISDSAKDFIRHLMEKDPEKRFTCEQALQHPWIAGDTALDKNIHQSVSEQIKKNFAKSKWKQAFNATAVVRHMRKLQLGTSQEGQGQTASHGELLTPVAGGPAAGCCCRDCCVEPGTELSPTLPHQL
Sequence of AURKB (human) (Q96GD4 whole entry, looked up): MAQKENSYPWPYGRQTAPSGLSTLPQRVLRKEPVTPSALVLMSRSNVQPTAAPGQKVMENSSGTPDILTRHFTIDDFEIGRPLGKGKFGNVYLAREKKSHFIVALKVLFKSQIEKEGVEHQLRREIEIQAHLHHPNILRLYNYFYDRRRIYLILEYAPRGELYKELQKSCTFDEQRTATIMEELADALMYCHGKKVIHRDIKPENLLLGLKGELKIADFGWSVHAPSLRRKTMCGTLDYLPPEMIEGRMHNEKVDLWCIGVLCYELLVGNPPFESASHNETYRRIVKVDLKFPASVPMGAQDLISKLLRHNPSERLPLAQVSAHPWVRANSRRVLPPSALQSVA
Sequence of IKBKE (human) (Q14164 whole entry, looked up): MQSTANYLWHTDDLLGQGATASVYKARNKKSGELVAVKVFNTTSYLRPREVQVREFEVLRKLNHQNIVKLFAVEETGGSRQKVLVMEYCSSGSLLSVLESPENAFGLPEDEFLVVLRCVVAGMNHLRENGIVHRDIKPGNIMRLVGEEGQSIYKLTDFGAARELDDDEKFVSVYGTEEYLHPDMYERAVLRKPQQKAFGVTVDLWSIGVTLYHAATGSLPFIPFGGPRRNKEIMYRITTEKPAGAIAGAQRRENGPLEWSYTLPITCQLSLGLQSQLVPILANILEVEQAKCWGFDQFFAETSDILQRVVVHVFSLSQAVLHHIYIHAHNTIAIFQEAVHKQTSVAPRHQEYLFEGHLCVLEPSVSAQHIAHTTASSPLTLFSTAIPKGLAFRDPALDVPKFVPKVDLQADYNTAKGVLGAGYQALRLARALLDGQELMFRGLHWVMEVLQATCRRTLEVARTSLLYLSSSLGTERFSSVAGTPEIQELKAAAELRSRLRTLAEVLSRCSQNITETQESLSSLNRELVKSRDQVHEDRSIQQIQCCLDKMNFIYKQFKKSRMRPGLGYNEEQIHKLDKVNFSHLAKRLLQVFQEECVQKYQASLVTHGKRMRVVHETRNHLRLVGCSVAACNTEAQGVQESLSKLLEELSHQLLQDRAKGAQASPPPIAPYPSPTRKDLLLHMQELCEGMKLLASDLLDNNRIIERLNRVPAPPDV
Sequence of PAK6 (human) (Q9NQU5 whole entry, looked up): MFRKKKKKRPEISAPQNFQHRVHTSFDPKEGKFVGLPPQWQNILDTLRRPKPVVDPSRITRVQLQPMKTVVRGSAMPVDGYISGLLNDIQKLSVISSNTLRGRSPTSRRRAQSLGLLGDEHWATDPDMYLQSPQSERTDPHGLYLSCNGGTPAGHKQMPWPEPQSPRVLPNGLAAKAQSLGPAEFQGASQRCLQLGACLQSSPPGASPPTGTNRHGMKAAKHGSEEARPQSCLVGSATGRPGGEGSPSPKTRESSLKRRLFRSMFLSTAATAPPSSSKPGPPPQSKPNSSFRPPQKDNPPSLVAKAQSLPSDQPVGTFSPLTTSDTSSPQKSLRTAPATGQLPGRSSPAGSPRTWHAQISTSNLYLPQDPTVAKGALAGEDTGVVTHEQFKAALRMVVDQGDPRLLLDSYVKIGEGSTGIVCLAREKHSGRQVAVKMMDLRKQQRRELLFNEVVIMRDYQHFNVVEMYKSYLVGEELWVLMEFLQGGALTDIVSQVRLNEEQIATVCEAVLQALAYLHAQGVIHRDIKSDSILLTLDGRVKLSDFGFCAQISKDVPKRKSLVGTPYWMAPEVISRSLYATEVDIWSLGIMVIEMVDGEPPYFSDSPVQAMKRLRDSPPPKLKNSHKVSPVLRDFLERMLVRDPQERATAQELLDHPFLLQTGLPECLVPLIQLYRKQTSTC
Sequence of RPS6KA3 KD1 KD2 (human) (P51812 whole entry, looked up): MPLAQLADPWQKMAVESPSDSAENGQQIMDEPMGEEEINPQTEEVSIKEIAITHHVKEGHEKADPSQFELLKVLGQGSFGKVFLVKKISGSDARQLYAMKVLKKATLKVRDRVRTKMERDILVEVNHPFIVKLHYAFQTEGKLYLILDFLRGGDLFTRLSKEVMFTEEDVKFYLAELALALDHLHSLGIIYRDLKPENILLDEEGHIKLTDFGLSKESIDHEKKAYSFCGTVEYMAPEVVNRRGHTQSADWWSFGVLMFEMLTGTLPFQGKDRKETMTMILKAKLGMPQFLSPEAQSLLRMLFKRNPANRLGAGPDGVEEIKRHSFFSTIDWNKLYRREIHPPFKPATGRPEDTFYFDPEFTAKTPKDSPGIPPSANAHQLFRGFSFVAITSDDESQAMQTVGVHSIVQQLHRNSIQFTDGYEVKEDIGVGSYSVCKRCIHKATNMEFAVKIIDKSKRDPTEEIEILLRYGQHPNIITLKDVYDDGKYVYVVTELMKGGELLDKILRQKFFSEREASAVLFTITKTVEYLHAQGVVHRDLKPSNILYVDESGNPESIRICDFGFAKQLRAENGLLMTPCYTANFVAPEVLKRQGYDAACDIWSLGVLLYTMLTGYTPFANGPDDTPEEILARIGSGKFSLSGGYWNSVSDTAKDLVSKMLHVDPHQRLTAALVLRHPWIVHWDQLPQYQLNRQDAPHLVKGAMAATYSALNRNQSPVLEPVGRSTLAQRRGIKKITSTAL
Sequence of GSK3B (human) (P49841 whole entry, looked up): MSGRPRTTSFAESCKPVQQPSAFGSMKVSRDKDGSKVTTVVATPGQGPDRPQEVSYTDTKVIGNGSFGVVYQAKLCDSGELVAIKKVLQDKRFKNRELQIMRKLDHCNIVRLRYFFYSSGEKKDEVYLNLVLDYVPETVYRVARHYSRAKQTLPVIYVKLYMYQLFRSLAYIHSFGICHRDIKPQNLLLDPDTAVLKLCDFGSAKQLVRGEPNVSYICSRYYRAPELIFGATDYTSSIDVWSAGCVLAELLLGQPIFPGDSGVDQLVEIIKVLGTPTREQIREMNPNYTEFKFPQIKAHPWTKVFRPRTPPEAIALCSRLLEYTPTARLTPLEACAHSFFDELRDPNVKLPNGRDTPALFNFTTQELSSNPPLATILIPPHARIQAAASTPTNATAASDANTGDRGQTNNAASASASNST
Sequence of MAPK14 (human) (Q16539 whole entry, looked up): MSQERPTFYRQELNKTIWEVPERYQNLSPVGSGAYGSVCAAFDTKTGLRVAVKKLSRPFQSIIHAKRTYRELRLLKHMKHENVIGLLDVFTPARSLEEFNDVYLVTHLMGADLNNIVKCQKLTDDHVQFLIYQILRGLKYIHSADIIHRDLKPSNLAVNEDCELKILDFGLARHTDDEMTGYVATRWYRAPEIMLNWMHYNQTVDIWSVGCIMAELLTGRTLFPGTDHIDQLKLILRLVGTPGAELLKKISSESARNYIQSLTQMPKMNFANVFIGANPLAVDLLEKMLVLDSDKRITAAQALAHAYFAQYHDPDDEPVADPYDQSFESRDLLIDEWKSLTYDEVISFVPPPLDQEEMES

Structure (SMILES): Oc1ccc2c(c1)C(O)c1cc(O)ccc1-2
- residual activity [1]: 115%
- residual activity [2]: 80%
- residual activity (AURKB (human)): 75%
- residual activity (BRSK2 (human)): 96%
- residual activity (CAMKK2 (human)): 91%
- residual activity (CDK2 CCNA2 (human)): 54%
- residual activity (CHEK2 (human)): 64%
- residual activity (CaMK1 (human)): 25%
- residual activity (DYRK3 (human)): 15%
- residual activity (EPHA2 (human)): 86%
- residual activity (FGFR1 (human)): 62%
- residual activity (GSK3B (human)): 54%
- residual activity (IKBKE (human)): 103%
- residual activity (LCK (mouse)): 93%
- residual activity (MAPK11 (human)): 106%
- residual activity (MAPK12 (human)): 85%
- residual activity (MAPK14 (human)): 84%
- residual activity (MAPK8 (human)): 97%
- residual activity (MAPKAPK5 (human)): 61%
- residual activity (MELK (human)): 70%
- residual activity (MYLK (human)): 77%
- residual activity (NEK2 (human)): 84%
- residual activity (NEK6 (human)): 78%
- residual activity (PAK6 (human)): 90%
- residual activity (PHKG1 (human)): 77%
- residual activity (PIM1 (human)): 19%
- residual activity (PIM2 (human)): 66%
- residual activity (PIM3 (human)): 21%
- residual activity (PLK1 (human)): 66%
- residual activity [3]: 99%
- residual activity (PRKACA (human)): 76%
- residual activity (PRKCA (human)): 94%
- residual activity (PRKCZ (human)): 89%
- residual activity (RPS6KA1 KD1 KD2 (human)): 70%
- residual activity (RPS6KA3 KD1 KD2 (human)): 80%
- residual activity (SRC (human)): 70%
- residual activity (STK3 (human)): 39%
- residual activity (SYK (human)): 121%
- residual activity (TBK1 (human)): 123%
- residual activity (YES1 (human)): 72%
